Laboratory results reported in US20240335431A1, “1-H-PYRROLO[2,3-c]PYRIDINE COMPOUNDS” (Acerta Pharma B.V., priority 2023, published 2024).
pKi: −log10 of the molar value.

Tests used:
muscarinic M2 receptor = muscarinic M2 receptor (Homo sapiens (Human), UniProt P08172); assay: Muscarinic M2 receptor binding assay (assay 1); settings: [3H]AF-DX 384 2 nM, Cheng Prusoff
Protocol: Cell membrane homogenates (60 μg protein) were incubated for 60 minutes at 22° C. with 2 nM [3H]AF-DX 384 in the absence or presence of the test compound in a buffer containing 50 mM Tris-HCl (pH 7.4), 120 mM NaCl, 5 mM KCl, 5 mM MgCl2, and 1 mM EDTA. Nonspecific binding was determined in the presence of 1 μM atropine. Following incubation, the samples were filtered rapidly under vacuum through glass fiber filters (GF/B, Packard) presoaked with 0.3% PEI and rinsed several times with ice-cold 50 mM Tris-HCl using a 96-sample cell harvester (Unifilter, Packard). The filters were dried then counted for radioactivity in a scintillation counter (Topcount, Packard) using a scintillation cocktail (Microscint 0, Packard). The results were expressed as a percent inhibition of the control radioligand specific binding, from which the Ki was calculated. Data were analyzed using software developed at Cerep (Hill software) and validated by comparison with data generated by the commercial software SigmaPlot®4.0 for Windows® (© 1997 by SPSS Inc.). The inhibition constant, Ki, was calculated using the Cheng Prusoff equation:
where L=concentration of ligand in the assay, and Kd=affinity of the ligand for the receptor. The standard reference compound was methoctramine, which was tested in each experiment at several concentrations to obtain a competition curve from which its IC50 was calculated.

[1] = Human hepatocyte intrinsic clearance assay; type: in vitro ADME; settings: human hepatocytes
Protocol: Human hepatocytes (LiverPool™ 10-Donor Human hepatocytes (Mixed Gender, PEG-free, Product No. S01205, 5 million cells per vial) were obtained from BioreclamationIVT. DMSO was sourced from Solarbio S&T Co Ltd. Leibovitz's L-15 Medium, Williams' Medium E, GlutaMAX™-1 (100×), HEPES, DPBS (10×) and Human Recombinant Insulin Solution were purchased from Gibco. Isotonic Percoll Solution was purchased from GE Healthcare. Fetal Bovine Serum (FBS) was purchased from Corning.
10 mM dexamethasone stock solution was prepared by dissolving 3.9 mg dexamethasone in 1 mL of DMSO. An Isotonic Percoll Solution was prepared by dilution of Percoll with DPBS (10×). 15 mL of Isotonic Percoll Solution (90% Percoll/10% DPBS) was added to 31.25 mL William's E medium containing 500 mL of GlutaMAX™-1 (100×), 750 mL of 1M HEPES, 2.5 mL of 5% FBS, 50 mL of 4 mg/mL Human Recombinant Insulin Solution and 5 mL of the 10 mM dexamethasone stock.
2 mL of 10 mM DMSO stock solutions of test compound were added to 198 mL acetonitrile to produce 100 mmol/L concentration.
The human hepatocyte vial was thawed at 37° C. in a waterbath. Once thawed, contents were poured into a 50 mL conical tube and centrifuged at 100 g for 10 minutes. The thawing medium was poured out and 4 mL L-15 medium was added. The tube was gently shaken to resuspend the hepatocytes and cells were counted with an appropriate cell counter. 247.5 mL of the hepatocyte suspension was transferred into each well of the plate and pre-warmed at 600 rpm and 50° C. to enable the temperature to rise to 37° C.
2.5 mL of the […] test compound solution was added to initiate the reaction (final concentration […]) and incubated at 37° C. with shaking at 900 rpm. At 0.5, 5, 15, 30, 45, 60, 80, 100 and 120 minutes, 20 mL was taken into a quenching solution of acetonitrile containing internal standards. The mix was vortexed at 800 rpm for 2 minutes followed by centrifugation for 20 minutes at 4000 rpm at 4° C. 40 mL of supernatant was transferred into a 96 well analysis plate containing 160 mL of water in each well. The analysis plate was shaken at 100 rpm for 2 minutes prior to analysis by LC-MS/MS.
Peak areas were determined from extracted ion chromatograms. Percent parent remaining was calculated from peak area of test compound. The slope value, k, was determined by linear regression of the natural logarithm of percent parent remaining versus incubation time.
The in vitro intrinsic clearance (in vitro CLint in mL/min/10^6 cells) was determined from the slope value using the following equation: […]
where V is the incubation volume (0.25 mL) and N is the number of hepatocytes per well (0.25×10^6 cells).

muscarinic M2 receptor, sequence (P08172 whole entry): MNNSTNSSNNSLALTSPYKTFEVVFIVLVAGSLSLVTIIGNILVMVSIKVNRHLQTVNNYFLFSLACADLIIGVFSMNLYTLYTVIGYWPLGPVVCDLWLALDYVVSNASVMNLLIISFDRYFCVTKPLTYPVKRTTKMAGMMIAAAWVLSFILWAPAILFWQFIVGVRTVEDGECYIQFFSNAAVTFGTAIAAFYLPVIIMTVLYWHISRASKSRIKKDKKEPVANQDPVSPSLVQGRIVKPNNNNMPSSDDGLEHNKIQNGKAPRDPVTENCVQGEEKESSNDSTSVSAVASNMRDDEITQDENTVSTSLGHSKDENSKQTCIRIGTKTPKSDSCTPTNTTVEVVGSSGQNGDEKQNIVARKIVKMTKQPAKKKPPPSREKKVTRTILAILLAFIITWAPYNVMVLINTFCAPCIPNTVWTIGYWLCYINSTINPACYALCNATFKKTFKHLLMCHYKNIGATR

| SMILES | pKi (muscarinic M2 receptor) | HH CLint [1] |
| --- | --- | --- |
| CC(C)N(C(=O)c1cc(F)ccc1-n1cc(C(=O)C2CCN(C(=O)[C@H]3NC[C@@H]4C[C@@H]43)CC2)c2ccncc21)C(C)C [Example 19, 2-(3-(1-((1S,2S,5R)-3-Azabicyclo[3.1.0]hexane-2-carbonyl)piperidine-4-carbonyl)-1H-pyrrolo[2,3-c]pyridin-1-yl)-5-fluoro-N,N-diisopropylbenzamide] | 5.85 | 3.6 μl/min/1E6 |
| CC(C)N(C(=O)c1cc(F)ccc1-n1cc(C(=O)C2CCN(C(=O)[C@H]3NC[C@@H]4CCC[C@@H]43)CC2)c2ccncc21)C(C)C [Example 21, 5-Fluoro-N,N-diisopropyl-2-(3-(1-((1S,3αR,6αS)-octahydrocyclopenta[c]pyrrole-1-carbonyl)piperidine-4-carbonyl)-1H-pyrrolo[2,3-c]pyridin-1-yl)benzamide] | 6.30 | 2.0 μl/min/1E6 |
| CC(C)c1ncsc1-c1cc(F)ccc1-n1cc(C(=O)C2CN(C(=O)[C@H]3N[C@@H]4CC[C@H]3C4)C2)c2ccncc21.O=CO [Example 12, (1-((1R,3S,4S)-2-Azabicyclo[2.2.1]heptane-3-carbonyl)azetidin-3-yl)(1-(4-fluoro-2-(4-isopropylthiazol-5-yl)phenyl)-1H-pyrrolo[2,3-c]pyridin-3-yl)methanone 1·formic acid] | 5.16 | 3.9 μl/min/1E6 |
| O=C(c1cn(-c2ccc(F)cc2-c2cncnc2C2CC2)c2cnccc12)C1CCN(C(=O)[C@H]2N[C@@H]3CC[C@H]2C3)CC1 [Example 40, (1-((1R,3S,4S)-2-Azabicyclo[2.2.1]heptane-3-carbonyl)piperidin-4-yl)(1-(2-(4-cyclopropylpyrimidin-5-yl)-4-fluorophenyl)-1H-pyrrolo[2,3-c]pyridin-3-yl)methanone] | – | <1.0 μl/min/1E6 |
| CC(C)N(C(=O)c1cc(F)ccc1-n1cc(C(=O)C2CN(C(=O)[C@H]3NC4CCC3CC4)C2)c2ccncc21)C(C)C [Example 6, (S)-2-(3-(1-(2-Azabicyclo[2.2.2]octane-3-carbonyl)azetidine-3-carbonyl)-1H-pyrrolo[2,3-c]pyridin-1-yl)-5-fluoro-N,N-diisopropylbenzamide] | 5.64 | – |

Results, then the compound that gave them:

| pKi (muscarinic M2 receptor) | HH CLint [1] | SMILES |
| --- | --- | --- |
| 6.00 | 1.6 μl/min/1E6 | C=C1C[C@@H]2CC[C@H]1[C@@H](C(=O)N1CCC(C(=O)c3cn(-c4ccc(F)cc4C(=O)N(C(C)C)C(C)C)c4cnccc34)CC1)N2 [Example 18, 5-Fluoro-N,N-diisopropyl-2-(3-(1-((1S,3S,4R)-5-methylene-2-azabicyclo[2.2.2]-octane-3-carbonyl)piperidine-4-carbonyl)-1H-pyrrolo[2,3-c]pyridin-1-yl)benzamide] |
| 5.15 | <1.0 μl/min/1E6 | CCN(C(=O)c1cc(F)ccc1-n1c(C)c(C(=O)C2CCN(C(=O)[C@H]3N[C@@H]4CC[C@H]3C4)CC2)c2ccncc21)C(C)C [Example 46, 2-(3-(1-((1R,3S,4S)-2-Azabicyclo[2.2.1]heptane-3-carbonyl)piperidine-4-carbonyl)-2-methyl-1H-pyrrolo[2,3-c]pyridin-1-yl)-N-ethyl-5-fluoro-N-isopropylbenzamide] |
| 7.00 | 1.7 μl/min/1E6 | CC(C)c1ccncc1-c1cc(F)ccc1-n1cc(C(=O)C2CCN(C(=O)[C@H]3N[C@@H]4CC[C@H]3C4)CC2)c2ccncc21 [Example 41, (1-((1R,3S,4S)-2-Azabicyclo[2.2.1]heptane-3-carbonyl)piperidin-4-yl)(1-(4-fluoro-2-(4-isopropylpyridin-3-yl)phenyl)-1H-pyrrolo[2,3-c]pyridin-3-yl)methanone] |
| – | <1.0 μl/min/1E6 | CCN(C(=O)c1cc(F)ccc1-n1c(C)c(C(=O)C2CCN(C(=O)[C@H]3NC[C@@H]4C[C@@H]43)CC2)c2ccncc21)C(C)C (single isomer, unassigned) [Example 48-1] |
